# Experimental data reported in patent US11827624B2, “Covalent immune recruiter compounds for immune cell recognition and associated uses” (McMaster University, priority 2020, dated 2023).
# Tested on: PSMA+HEK cells
# Experiment: Two-color flow cytometry ADCP (CD64) assay with mAb on PSMA+HEK cells
# Assay type: cell-based, human
# From the text: ADCP flow cytometry experiments were run on a BD LSRII Flow Cytometer. The human IgG isotype control used was purchased from Jackson ImmunoResearch (009-000-003). The human IgG1 monoclonal anti-DNP antibody (mAb) was purchased from acrobiosystems (DNP-M2). PSMA expression was confirmed with an anti-PSMA antibody Alexa 647 conjugate (Novus Biologicals, Catalog #FAB4234R). For PSMA competition controls, PMPA was purchased from Sigma (SML1612). Hek-293T (PSMA+/−) cell lines were generously given by Dr. Cyril Barinka (Institute of Biotechnology CAS, Czech Republic). U937 cells were generously given by Dr. John Valliant (McMaster University, Canada). LNCaP cells were generously given by Dr. Karen Mossman (McMaster University, Canada). IFN-γ was purchased from Fischer Scientific (PHC4031). Ultra low IgG FBS was purchased from Fischer Scientific (A3381901). RPMI-1640 was purchased as a powder from Fischer Scientific (31800089) and resuspended. DMEM was purchased as a powder from Fischer Scientific (12800082) and resuspended. […]
# For preparation of effector monocytes, 24 hours prior to inducing phagocytosis U937 monocytes were seeded at 500,000 cells/mL and activated with IFN-γ ([…]). After incubation, these cells were then counted and washed twice with serum free assay media (neat RPMI). […] These cells were then counted and washed twice with serum free assay media (neat RPMI). […]
smiles,measurement,value
O=C(O)CC[C@H](NC(=O)N[C@@H](CCCCNC(=O)NCCOCCOCCOCCOCCOCCOCCOCCOC(=O)n1cnc(CCNC(=O)CNc2ccc([N+](=O)[O-])cc2[N+](=O)[O-])c1)C(=O)O)C(=O)O [CIR 3],CD64 based target immune recognition (phagocytosis),substantial functional enhancement relative to ARM 11 across all antibody concentrations tested
